The source of these data is ChEMBL document CHEMBL4334438, “Discovery of novel glycogen synthase kinase-3α inhibitors: Structure-based virtual screening, preliminary SAR and biological evaluation for treatment of acute myeloid leukemia” (Eur J Med Chem, 2019).

Usually inhibition stands for the relative decrease from the control value, in per cent. As usually defined, the IC50 is the concentration that gives 50% inhibition.

The subject of data set [1] is Glycogen synthase kinase-3 alpha (Homo sapiens), P49840 [UNDEFINED MUTATION]. The data set is described as follows: Inhibition of human GSK-3alpha S449A mutant (2 to end residues) at 10 uM using phospho GS2 peptide as substrate after 40 mins in presence of [gamma-33ATP] by scintillation counting method relative to control.
The next data set addresses GSK-3beta (H350L mutant) (Homo sapiens, UniProt P49841, H350L). The data set is described as follows: Inhibition of human GSK-3beta H350L mutant (2 to end residues) at 10 uM using phospho GS2 peptide as substrate after 40 mins by [gamma-33ATP] radiometric assay relative to control. Particulars: human GSK-3beta H350L mutant enzyme (residues 2 to end), probe phospho GS2 peptide.

Data set [2] deals with Glycogen synthase kinase-3 alpha (Homo sapiens, UniProt P49840). Kind of data set: Inhibition of human GSK-3alpha S449A mutant (2 to end residues) using phospho GS2 peptide as substrate after 40 mins in presence of [gamma-33ATP] by scintillation counting method.
Glycogen synthase kinase-3 alpha, sequence (P49840 whole entry): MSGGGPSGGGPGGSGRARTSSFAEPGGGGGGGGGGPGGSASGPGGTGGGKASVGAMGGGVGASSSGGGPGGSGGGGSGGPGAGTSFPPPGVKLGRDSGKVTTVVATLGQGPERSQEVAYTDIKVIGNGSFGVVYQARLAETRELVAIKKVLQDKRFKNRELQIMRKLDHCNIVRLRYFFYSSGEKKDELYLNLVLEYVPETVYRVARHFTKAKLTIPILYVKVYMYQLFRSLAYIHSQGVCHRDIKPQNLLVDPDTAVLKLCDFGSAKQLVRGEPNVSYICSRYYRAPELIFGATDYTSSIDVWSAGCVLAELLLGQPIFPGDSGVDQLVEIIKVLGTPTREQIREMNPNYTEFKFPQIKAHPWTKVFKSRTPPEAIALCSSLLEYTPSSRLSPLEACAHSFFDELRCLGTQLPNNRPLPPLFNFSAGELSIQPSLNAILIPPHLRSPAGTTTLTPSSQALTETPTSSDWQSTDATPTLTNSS
In data set [3] the target is Glycogen synthase kinase-3 beta (Homo sapiens, UniProt P49841, H350L). The data set is described as follows: Inhibition of human GSK-3beta H350L mutant (2 to end residues) at 10 uM using phospho GS2 peptide as substrate after 40 mins by [gamma-33ATP] radiometric assay.
Glycogen synthase kinase-3 beta, sequence (P49841 whole entry, looked up, stated change not applied): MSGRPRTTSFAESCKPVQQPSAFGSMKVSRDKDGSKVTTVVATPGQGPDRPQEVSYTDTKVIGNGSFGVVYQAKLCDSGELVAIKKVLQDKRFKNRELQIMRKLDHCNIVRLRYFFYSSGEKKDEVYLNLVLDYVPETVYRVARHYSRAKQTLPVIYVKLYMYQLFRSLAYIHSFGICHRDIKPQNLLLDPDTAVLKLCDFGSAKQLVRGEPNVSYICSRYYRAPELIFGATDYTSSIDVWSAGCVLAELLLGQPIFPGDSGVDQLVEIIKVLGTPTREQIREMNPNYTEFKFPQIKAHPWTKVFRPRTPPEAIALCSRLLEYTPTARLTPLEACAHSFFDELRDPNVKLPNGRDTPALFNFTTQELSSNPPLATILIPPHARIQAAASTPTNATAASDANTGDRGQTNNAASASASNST

GSK-3beta (H350L mutant), sequence (P49841 whole entry, looked up, stated change not applied, the tested form may be a part): as the sequence (P49841 whole entry, looked up, stated change not applied) above
Glycogen synthase kinase-3 alpha (Homo sapiens), P49840 [UNDEFINED MUTATION], sequence (P49840 whole entry, looked up, stated change not applied, the tested form may be a part): as the sequence (P49840 whole entry) above

`COc1ccc(-c2ccc(CNc3n[nH]c(C)n3)o2)cc1Cl`: in data set [1], the inhibition was 8%.

Turning to `O=C1NC(=S)N/C1=C/c1ccc(-c2ccc(Cl)c(Cl)c2)o1`, on GSK-3beta (H350L mutant), the inhibition at 40 min, 10 µM stood at 59%. In addition, the 50% inhibitory concentration (IC50) in data set [2] was found to be 370 nM; in data set [3], 678 nM. Besides, in data set [1], the inhibition was 65%.

For the compound `CN1C(=N)NC(=O)/C1=C\c1ccc(-c2ccc(F)cc2)o1`, the inhibition at 40 min, 10 µM against GSK-3beta (H350L mutant) came to 78%. For the same compound, the IC50 in data set [2] came to 1340 nM; in data set [3] it was 1890 nM. For the same compound, the inhibition in data set [1] amounted to 81%.

For `O=C1NC(=S)NC(=O)C1=Cc1ccc(-c2cc(Cl)ccc2Cl)o1`, in data set [1], the inhibition came out at 26%.

Regarding `CCCOC(=O)c1cc(-c2ccc(/C=C3/NC(=S)NC3=O)o2)ccc1Cl`, at GSK-3beta (H350L mutant), the inhibition at 40 min, 10 µM came out at 81%. The IC50 came to 159 nM in data set [2] and 405 nM in data set [3]. Further, in data set [1], the inhibition was found to be 88%.

On to `Cc1ccccc1OCC(=O)Nc1ccc(Oc2ccc3c(c2)C(=O)NC3=O)cc1`, for which the IC50 in data set [2] amounted to 10200 nM. Besides, the inhibition in data set [1] came out at 54%.

`Cc1ccc(-c2ccc(/C=C3/SC(=N)NC3=O)o2)cc1Cl`: the inhibition at 40 min, 10 µM on GSK-3beta (H350L mutant) came to 77%. For the same compound, the figures for the IC50 in data set [2] and in data set [3] were 301 nM and 1430 nM, respectively. Also, in data set [1], the inhibition was determined as 81%.

Take `N#Cc1cn(CCCN2CCN(CCCn3cc(C#N)c(=O)[nH]c3=O)CC2)c(=O)[nH]c1=O`: the inhibition in data set [1] was determined as 2%.

Take `COc1ccc(-c2n[nH]cc2/C=N\NC(=O)c2ccccc2I)cc1OC`: in data set [1], the inhibition stood at 44%.

Take `Cc1ccc(SCc2[nH]nc3c2C(c2ccnc4ccccc24)C(C#N)=C(N)O3)cc1` (configuration not stated): in data set [1], the inhibition stood at 2%.

Turning to `O=C1N/C(=N/Cc2ccccc2)S/C1=C/c1ccc(-c2ccccc2)o1`, the inhibition in data set [1] was 30%.

Regarding `CCN1C(=O)/C(=C\c2ccc(-c3ccc(Cl)cc3Cl)o2)NC1=S`, the inhibition in data set [1] came to 26%.

In the case of `O=C1NC(=S)N/C1=C/c1ccc(-c2c(Br)cc([N+](=O)[O-])cc2Br)o1`, the inhibition in data set [1] was 42%.

Consider `COc1ccc([N+](=O)[O-])cc1-c1ccc(/C=C2/S/C(=N\C(C)=O)NC2=O)o1`, for which the inhibition in data set [1] came out at 9%.

Take `CC(=O)/N=C1/NC(=O)/C(=C\c2ccc(-c3ccc(F)cc3F)o2)S1`: the inhibition in data set [1] was 15%.

For the compound `NC(=O)CSc1nc2c(N)ncnc2n1Cc1ccccc1`, the inhibition in data set [1] was -10%.

Turning to `CN1C(=O)/C(=C\c2ccc(-c3cccc(Cl)c3)o2)N(C)C1=S`, the inhibition in data set [1] turned out to be 13%.

Take `O=C(COC(=O)c1cc(O)nc2ccccc12)c1cccc2ccccc12`: in data set [1], the inhibition came out at 2%.

In the case of `COC(=O)c1ccc(-c2ccc(/C=C3\C(=O)NC(=N)N3C)o2)cc1`, in data set [1], the inhibition is 32%.

With `Cc1[nH]nc2c1C(c1ccnc3ccccc13)C(C#N)=C(N)O2` (configuration not stated), the inhibition in data set [1] was found to be 6%.

Regarding `Cc1cc([N+](=O)[O-])ccc1-c1ccc(/C=C2/SC(=N)NC2=O)o1`, the inhibition in data set [1] amounted to 44%.

On to `N=C1NC(=O)/C(=C\c2ccc(-c3ccc(Cl)c([N+](=O)[O-])c3)o2)S1`, for which the inhibition in data set [1] turned out to be 49%.

`N#CC1=C(N)Oc2[nH]nc(-c3cccnc3)c2/C1=C1\C(=O)Nc2ccc(Br)cc21`: in data set [1], the inhibition is 2%.

As to `O=C1N/C(=N/c2ccccc2)S/C1=C/c1ccc(-c2ccccc2)o1`, the inhibition in data set [1] is 23%.

On to `CC(=O)c1cn(CCCCCCCCCCn2cc(C(C)=O)c(=O)[nH]c2=O)c(=O)[nH]c1=O`, for which, in data set [1], the inhibition was determined as 13%.

As to `CC(=O)/N=C1/NC(=O)/C(=C\c2ccc(-c3ccccc3C(=O)O)o2)S1`, the inhibition in data set [1] was found to be 11%.

`O=C1N/C(=N/c2ccccc2)S/C1=C/c1ccc(Sc2ccc(Cl)cc2)o1`: in data set [1], the inhibition stood at 47%.

With `COc1cc([N+](=O)[O-])ccc1-c1ccc(/C=C2/SC(=N)NC2=O)o1`, in data set [1], the inhibition is 29%.

`Cc1cc(C)cc(/N=C2/NC(=O)/C(=C\c3ccc(-c4cccc(Cl)c4)o3)S2)c1`: the inhibition in data set [1] is 10%.

With `Cc1ccc(Cl)cc1-c1ccc(/C=C2/S/C(=N\c3ccccc3)NC2=O)o1`, the inhibition in data set [1] worked out at 0%.

Turning to `Cc1c(Cl)cccc1-c1ccc(CNc2nc[nH]n2)o1`, the inhibition in data set [1] was 8%.

In the case of `O=C1NC(=O)N(c2ccc(Br)cc2)C(=O)/C1=C\NCCc1c[nH]c2ccccc12`, the IC50 in data set [2] worked out at 4600 nM. In addition, the inhibition in data set [1] amounted to 66%.

Take `CC(=O)/N=C1/NC(=O)/C(=C\c2ccc(-c3ccc(C)c(Cl)c3)o2)S1`: in data set [1], the inhibition is 21%.

Take `Cc1ccc(OCc2n[nH]c(Nc3ccccc3)n2)cc1`: the inhibition in data set [1] came to 5%.

Turning to `COc1cc(CNc2ccc(CNc3nc[nH]n3)cc2)ccc1OCC(=O)NC(C)(C)C`, the inhibition in data set [1] turned out to be 1%.

Turning to `O=C(N/N=C/c1cccnc1)c1cc(-c2cccc3ccccc23)n[nH]1`, in data set [1], the inhibition was found to be 12%.

Consider `CC1=NN(c2cccc(C(=O)O)c2)C(=O)/C1=C\c1ccc(-c2ccc3c(c2)C(=O)NC3=O)o1`, for which the concentration for half-maximal inhibition (IC50) in data set [2] came out at 6150 nM. The inhibition in data set [1] came out at 58%.

As for `COc1ccc([N+](=O)[O-])cc1-c1ccc(/C=C2/SC(=N)NC2=O)o1`, the inhibition in data set [1] was 15%.

Consider `Nc1nc(CCCc2n[nH]c(N)n2)n[nH]1`, for which the inhibition in data set [1] is 16%.

For `O=C1N/C(=N/c2ccccc2)S/C1=C/c1ccco1`, the inhibition in data set [1] amounted to 21%.

With `COc1ccc(CNc2cc(-c3ccco3)n[nH]2)cc1`, the inhibition in data set [1] is 1%.

Regarding `COc1cc(/C=C2/C(=O)NC(=O)N(c3ccccc3)C2=O)ccc1O`, in data set [1], the inhibition was 14%.

Take `O=C(N/N=C/c1cccc(Cl)c1)c1cc(-c2ccc3c4c(cccc24)CC3)[nH]n1`: in data set [2], the IC50 is 11200 nM. Further, the inhibition in data set [1] stood at 52%.

For `NC(=O)Cc1nc2sc3c(c2c(=O)[nH]1)CCN(Cc1ccccc1)C3`, the inhibition in data set [1] is -1%.

Take `CCOc1c(/C=C2/SC(=O)NC2=O)cccc1OC`: the half-maximal inhibitory concentration (IC50) in data set [2] is 16800 nM. The inhibition in data set [1] came out at 54%.

Turning to `N#Cc1ccccc1-c1ccc(C=C2C(=O)NC(=S)NC2=O)o1`, in data set [1], the inhibition turned out to be 14%.

For `N=C1NC(=O)/C(=C\c2ccc(-c3ccc([N+](=O)[O-])cc3Cl)o2)S1`, the inhibition in data set [1] stood at 20%.

`NS(=O)(=O)c1ccc(N/C=C2/C(=O)NC(=O)N(c3ccccc3)C2=O)cc1`: in data set [1], the inhibition stood at 17%.

`O=C(O)CCC(=O)N1N=C(c2c(-c3ccccc3)c3cc(Cl)ccc3[nH]c2=O)CC1c1ccco1` (configuration not stated): the IC50 in data set [2] was 13000 nM.

`CCCCCSc1nc2c(c(=O)[nH]c(=O)n2C)n1CC(O)COc1ccccc1` (configuration not stated): in data set [1], the inhibition is 25%.

Turning to `O=C1NC(=S)N/C1=C/c1ccc(-c2cc([N+](=O)[O-])ccc2Cl)o1`, the inhibition in data set [1] is 22%.

For `O=C(CSc1nc2ccccc2[nH]c1=O)Nc1ccc2c(c1)OCO2`, in data set [1], the inhibition worked out at 2%.

On to `CCN1C(=O)/C(=C\c2ccc(-c3ccc(C(=O)O)cc3)o2)N(CC)C1=S`, for which the inhibition in data set [1] was 38%.

In the case of `O=C(O)CCC(=O)N1N=C(c2c(O)nc3ccc(Cl)cc3c2-c2ccccc2)CC1c1ccco1` (configuration not stated), the inhibition in data set [1] worked out at 67%.

Turning to `COc1cc(CNc2nn[nH]n2)ccc1OCC(N)=O`, the inhibition in data set [1] was found to be 1%.

With `O=C(O)c1cc(NS(=O)(=O)c2ccc3c4c(cccc24)C(=O)N3)ccc1O`, in data set [1], the inhibition worked out at 15%.

On to `O=C1NC(=S)N/C1=C/c1ccc(Sc2ccc(Cl)cc2)o1`, for which the inhibition in data set [1] was found to be 23%.

`CCCN1C(=O)/C(=C\c2ccc(-c3ccc(Cl)cc3)o2)NC1=S`: the inhibition in data set [1] was determined as 17%.

Consider `O=C1N/C(=N/c2ccccc2)S/C1=C/c1ccc(-c2cccc(C(=O)O)c2)o1`, for which, in data set [1], the inhibition worked out at 15%.

In the case of `O=C(CSc1nnc(CCc2nnc(SCC(=O)c3ccccc3)[nH]2)[nH]1)c1ccccc1`, the inhibition in data set [1] was 25%.
